In assay [1] the target is T1, microtubular protein (tubulin) from porcine brains (Sus scrofa, UniProt P02550+P02554).
T1 construct: Microtubular protein was purified by the method of Shelanski et al; from tissue; host or cells: porcine brain
The assay is described as follows: Inhibition of tubulin polymerization in vitro (turbidimetry at 340 nm). In kind it is biochemical. Particulars: microtubular protein 1 mg/ml, 0.25 mM GTP, 37° C. The protocol: The inventive compounds were tested in various models. The inventive compounds of general formula I are remarkable in that they inhibit tubulin polymerization more than does 2-methoxyestradiol. The effect on tubulin polymerization was tested in vitro in the following way:
Microtubular protein was purified by the method of Shelanski et al. (Shelanski et al., Proc. Natl. Acad. Sci. USA 1973, 70, 765-8) via cyclic assembly/disassembly from porcine brains. The buffer system used had the following composition: 20 mM PIPES (1,4-piperazinediethanesulfonic acid, pKa 6.8), 80 mM NaCl, 0.5 mM MgCl2, 1 mM EGTA (ethylene glycol bis(2-aminoethyl)tetraacetic acid). Protein concentrations of 1 mg/ml (approx. […] tubulin) were used to test the active substance. The protein was determined by the method of Lowry (Lowry et al., J. Biol. Chem. 1951, 193, 265-75) using bovine serum albumin as standard. The assembly of the microtubuli was carried out in the presence of 0.25 mM GTP and heating of the samples to 37° C.
Microtubulus formation was checked using turbidimetry at a wavelength of 340 nm.
The active substances were tested by adding them at the beginning of the assembly or at the state of equilibrium. Their effectiveness is characterized by deviations in the turbidity curves from those of the control. To check the effect and evaluate the turbidity values measured, a transmission electron microscopic examination (CEM 902 A, Zeiss, Oberkochen, Germany) of the assemblate was always carried out after negative staining with 1% aqueous uranyl acetate.

Assay [2] deals with tubulin. Particulars: literature, J. Med. Chem. 1997, 40, 2323-2334; cited from earlier work.

Structures are written as SMILES.

T1 sequence (P02554 whole entry): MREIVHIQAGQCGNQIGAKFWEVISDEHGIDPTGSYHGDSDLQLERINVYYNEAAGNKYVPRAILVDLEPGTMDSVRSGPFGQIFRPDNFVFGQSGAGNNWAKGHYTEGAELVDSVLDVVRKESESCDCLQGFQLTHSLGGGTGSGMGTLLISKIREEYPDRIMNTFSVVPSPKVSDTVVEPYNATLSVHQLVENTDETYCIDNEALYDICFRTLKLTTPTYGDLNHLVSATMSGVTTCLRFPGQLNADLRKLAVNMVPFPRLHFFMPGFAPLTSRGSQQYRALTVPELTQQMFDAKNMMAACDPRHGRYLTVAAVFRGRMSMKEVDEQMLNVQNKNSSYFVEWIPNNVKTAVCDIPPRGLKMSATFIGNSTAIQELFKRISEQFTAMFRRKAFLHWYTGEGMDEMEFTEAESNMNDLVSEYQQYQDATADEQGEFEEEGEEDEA
T1 sequence (P02550 whole entry): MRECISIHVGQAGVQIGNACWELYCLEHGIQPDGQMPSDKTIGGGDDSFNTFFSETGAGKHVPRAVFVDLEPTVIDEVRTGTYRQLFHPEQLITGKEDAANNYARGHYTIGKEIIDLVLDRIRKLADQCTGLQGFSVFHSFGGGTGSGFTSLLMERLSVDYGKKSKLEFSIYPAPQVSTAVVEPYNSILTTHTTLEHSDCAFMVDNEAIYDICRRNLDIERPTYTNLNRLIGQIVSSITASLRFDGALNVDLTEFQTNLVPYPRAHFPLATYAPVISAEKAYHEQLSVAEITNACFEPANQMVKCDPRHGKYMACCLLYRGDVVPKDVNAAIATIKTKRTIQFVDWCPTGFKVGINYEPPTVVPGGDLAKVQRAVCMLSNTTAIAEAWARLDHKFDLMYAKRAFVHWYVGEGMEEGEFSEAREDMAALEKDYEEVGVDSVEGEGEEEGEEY

The IC50 is the concentration that inhibits the measured activity by half. Regarding `COc1cc2c(cc1O)CCC1C2CC[C@@]2(C)C1CC[C@@H]2O` (stereo partly shown) [2-Methoxyestradiol], the IC50 in assay [1] was above 3 µM.

For `COc1cc2c(cc1OS(N)(=O)=O)CCC1C2CC[C@]2(C)C(=O)CCC12` (stereo partly shown) [2-Methoxyestrone-3-sulfamate], in assay [1], it took 1.6 µM to reach half-maximal inhibition (IC50).

Consider `CCOc1cc2c(cc1O)CC[C@@H]1[C@@H]2CC[C@]2(C)[C@@H](O)CC[C@@H]12` [2-ethoxyestradiol], for which, in assay [2], the “Activity in inhibition of tubulin polymerization compared with 2-methoxyestradiol” value is on record as “higher than that of 2-methoxyestradiol”.

In assay [1], `COc1cc2c(cc1OS(N)(=O)=O)CC[C@@H]1[C@@H]2CC[C@]2(C)[C@@H](O)CC[C@@H]12` [Example 1, 2-Methoxy-17β-hydroxy-estra-1,3,5(10)-trien-3-yl sulfamate] returned an IC50 of 1 µM.

The values are drawn from patent US8026229B2, “Antitumor-active 2-alkoxyestradiol sulfamates” (Sterix Limited, priority 2001, dated 2011).
